Experimental data reported in ChEMBL document CHEMBL1156829 (Proc Natl Acad Sci U S A, 2008).

Experiments:
[1] = system: Plasmodium falciparum; assay: NOVARTIS: Inhibition of Plasmodium falciparum 3D7 (drug-susceptible) proliferation in erythrocyte-based infection assay; type: functional, organism-based; conditions: Plasmodium falciparum, 3D7
[2] = system: Plasmodium falciparum; assay: NOVARTIS: Inhibition of Plasmodium falciparum W2 (drug-resistant) proliferation in erythrocyte-based infection assay; type: functional, organism-based; conditions: Plasmodium falciparum, W2; read-out: EC50
[3] = NOVARTIS: Cytotoxicity against human hepatocellular carcinoma cell line (Huh7); type: toxicity, cell-based, Huh-7; conditions: Huh7 cells (hepatocellular carcinoma cell line)

Structure (SMILES)	EC50 [1] [nM]	EC50 [2] [nM]	CC50 [3] [nM]
COc1ccc2[nH]c3ccccc3c(=O)c2c1	4320	3140	> 100000
CC(C)c1ccc(NC(=O)c2ccc(NCCCN(C)Cc3ccccc3)c([N+](=O)[O-])c2)cc1	2480	3200	> 100000
CC(C)CN1CCN(c2nc(C#N)c3c(c2C(=S)NC2CCCCC2)CC(C)(C)OC3)CC1	370	319	> 10000
C[n+]1ccc(/C=C/c2ccc(Br)cc2)cc1	455	313	> 10000
Cc1cccc(-n2c(CNC(=O)c3ccc(S(=O)(=O)N4CCCCC4)cc3)nnc2SCC(=O)Nc2nccs2)c1	4200	2170	67100
C[n+]1ccccc1/C=C/c1ccc(Br)cc1	360	324	> 10000
CCN1CCN(Cc2ccc(N(CC)CC)cc2)CC1	> 12500	3080	> 100000
c1ccc2cc3c(NCCN4CCOCC4)ccnc3cc2c1	310	313	> 10000
O=C(NNC(=S)NCc1ccco1)C(F)(F)F	> 12500	3170	> 100000
O=C(Nc1ccon1)c1cc(-c2cccnc2)nc2ccc(Br)cc12	1970	2510	> 81000
OC1(C(F)(F)F)CC(c2ccccc2)=NN1c1nncc(-c2ccccc2)n1 (stereo unspecified)	236	314	> 10000
Cc1ccc(-c2cc(C(F)(F)F)n3nc(C(=O)Nc4cccc(Cl)c4Cl)cc3n2)cc1	> 1250	> 321	> 10000
COc1ccc(-c2csc(Nc3ccc(O)cc3)n2)cc1OC	2960	3210	> 100000
COCCN1C(=O)c2[nH]nc(-c3ccccc3O)c2C1c1ccc(SC)cc1 (stereo unspecified)	7390	2780	> 87600
CCOc1cc(C=NN=C(N)N)ccc1OCc1ccccc1	235	321	10100
O=S(=O)(NCCCCNc1ccnc2cc(Cl)ccc12)c1cc(Cl)ccc1Cl	391	338	> 10700
CCCCC(=O)N(C/C=C/c1ccccc1OC)CCN1CCN(C(=O)NC23CC4CC(CC(C4)C2)C3)CC1	1450	313	> 10000
O=C(COc1ccc(Cl)cc1)NCCCCNc1ccnc2cc(Cl)ccc12	240	303	> 9740
CCCCc1ccc(C(=O)NCCCCNc2ccnc3cc(Cl)ccc23)cc1	221	311	> 10000
Cc1ccc(-c2nnc(Nc3ccc(F)cc3)c3ccccc23)cc1S(=O)(=O)NCC1CCCO1 (stereo unspecified)	1700	3110	> 100000
CCn1c(SCC(=O)NCCc2ccccc2)nc2sc3c(c2c1=O)CCN(C)C3	> 4820	3100	> 100000
O=C(NCc1cccnc1)[C@@H]1C[C@H](NC2CCN(CCc3ccccc3)CC2)CN1Cc1ccc(Cl)cc1	88.5	592	18500
Cc1ccc(C(=O)NCCCCNc2ccnc3cc(Cl)ccc23)cc1[N+](=O)[O-]	222	308	> 10000
CCCCN1Cc2ccc(C(=O)NC(C)C)cc2N=C1c1ccc(F)cc1	722	325	> 10000
Cc1cccc(CC(=O)N2CCC[C@@H]3CN(C(=O)CCc4cccnc4)CC[C@@H]32)c1	> 1250	317	> 10000
CN(C)c1oc(-c2ccc(Cl)cc2Cl)nc1[P+](c1ccccc1)(c1ccccc1)c1ccccc1	230	365	11600

Structure (SMILES)	EC50 [1] [nM]	EC50 [2] [nM]	CC50 [3] [nM]
COc1ccc(NC(=O)c2cnn(-c3ccccc3)c2NC(=O)c2ccco2)cc1	8000	3230	> 100000
CC(C)(CCl)C(=O)NCCCCNc1ccnc2cc(Cl)ccc12	386	361	> 11300
CCCCN1C(=O)NC(c2ccc(NC(=O)c3cccs3)cc2)C(C(=O)OC(C)C)=C1C (stereo unspecified)	8760	3170	> 100000
COc1ccccc1N1CCN(C(=O)Nc2ccc3ccccc3c2)CC1	> 1280	315	> 10000
CCCOc1ccc2c(c1)C(=NN=C(N)N)c1cc(OCCC)ccc1-2	270	323	> 10000
C=CC1(C)CC23CC(C(OC(=O)c4ccccc4)c4ccnc5ccccc45)N2CCC13 (stereo unspecified)	176	938	29200
Cc1cc(Nc2cccc(F)c2)nc(NCc2ccccc2)n1	72.2	664	20800
CCCCCN(C(=O)c1cccc(OC)c1)C(CC)c1nc2ccccc2c(=O)n1-c1ccccc1OC (stereo unspecified)	614	318	> 10000
Oc1ccc2ccccc2c1CNc1nc2ccccc2[nH]1	652	450	14300
CCOC(=O)c1ccc(-c2c(-c3cc(CC)c(OC)cc3O)noc2C)o1	927	433	13800
Cc1cccc(NC2=NC(N)=NC(C)(C)N2)c1	57.6	312	> 10000
COc1cc(NC(C)CCCN(Cc2ccc(OC)c(OC)c2)C(=O)Nc2cccc(Cl)c2Cl)c2ncccc2c1 (stereo unspecified)	691	203	6290
O=C(Nc1ccc(C2=NCCN2)cc1)c1ccc(-c2ccc(C(=O)Nc3ccc(C4=NCCN4)cc3)cc2)cc1	1320	364	> 11700
Cc1ccc(Cn2c(N3CCC(C(=O)NCc4ccc(F)cc4)CC3)nc3ccccc32)cc1	> 7510	3180	> 100000
Cc1c(Cc2ccccc2)sc(N=Cc2ccc(Br)s2)c1C(N)=O	445	314	> 10000
NC(=N[N+](=O)[O-])Nc1ccc(NC(=O)Nc2ccc(Cl)cc2)cc1	> 900	298	> 9610
O=C(NC1CCN(CC(O)CN(Cc2ccccc2)S(=O)(=O)c2ccccc2)C1)c1ccco1 (stereo unspecified)	1160	319	> 10000
Cc1cc(C)cc(NC(=S)NNc2ccnc3cc(Cl)ccc23)c1	1240	2170	67700
CC(=O)O[C@@H]1C(=O)[C@@]2(C)[C@H]([C@H](OC(=O)c3ccccc3)[C@@]3(O)C[C@H](OC(=O)[C@H](O)[C@@H](NC(=O)c4ccccc4)c4ccccc4)C(C)=C1C3(C)C)[C@]1(OC(C)=O)CO[C@@H]1C[C@@H]2O	98.2	38.6	1210
Cc1ccc(N2C(=O)c3sc4nnc(C)c(=O)n4c3C2=O)cc1	> 595	315	> 10000
O=C(Nc1cc(Oc2ccc(F)cc2)cc([N+](=O)[O-])c1)c1nc2nc(-c3ccccc3)cc(C(F)(F)F)n2n1	> 12500	3110	> 100000
CC[C@@H](C(=O)[C@@H](C)C(O)[C@H](C)CCc1ccc(C)c(O)c1C(=O)O)C1O[C@](CC)(C2CC[C@](O)(CC)[C@H](C)O2)C[C@@H]1C (stereo partly specified)	541	315	> 10000
COc1ccc(OC)c(-c2ccc(O)c(CNCCCN(C)C)c2)c1	1260	670	21400
CCCCCn1c(SCc2ccc(C)cc2)nc2cc(C(=O)NCc3ccco3)ccc2c1=O	> 12500	3160	> 100000
COc1ccc(NC(=O)c2cc3cc(C4(O)CCN(Cc5cc6ccccc6[nH]5)CC4)ccc3o2)cc1	272	650	20500
COc1cc(NC(=O)Cn2ccc3ccc([N+](=O)[O-])cc32)cc(OC)c1OC	439	319	> 10000
